Laboratory results from the NIST ThermoML archive (doi:10.1021/je200252c).
± gives the expanded uncertainty stated by the source.

Assay: Molar enthalpy of transition or fusion
Details: Crystal; DSC

## c1ccc2c(c1)OP1(=NP3(=NP4(=N1)Oc1ccccc1O4)Oc1ccccc1O3)O2 [tris(o-phenylenedioxy)cyclotriphosphazene]
  Molar enthalpy of transition or fusion: 4.67 ± 0.143 kcal/mol
